Results reported in patent US9273330B2, “Butanol tolerance in microorganisms” (Butamax Advanced Biofuels LLC, priority 2012, dated 2016).

How the values were obtained:
isobutanologen PNY1530 = test: Isobutanol selection: viable cell count after 24 hour exposure of high-density PNY1530 cultures; type: cell-based, Saccharomyces cerevisiae
Experimental: Cultures of PNY1530 were subjected to five rounds of selection in increasing concentrations of isobutanol. The first round of isobutanol selection was initiated by growing PNY1530 to OD600=1.8 in 100 ml of SEU culture medium (yeast nitrogen base supplemented with Sigma yeast synthetic dropout medium without uracil (Sigma Y1501) and with 0.2% ethanol). The cells were centrifuged, resuspended in 100 ml of fresh culture medium and grown for several hours to approximately 3 OD600 units. The culture was centrifuged and resuspended at OD600=100 (approximately 5×10^8 cfu/ml) in 3 ml of culture medium without ethanol. A small sample was removed from the cell suspension for a viable cell count, and the remaining cell suspension was divided into three cultures containing 1.5% isobutanol, 1.7% isobutanol or 2.0% isobutanol. Each culture was incubated at 30° C. on a roller drum for 24 hours. The cultures were then centrifuged, and the cell pellets were each resuspended in 1 ml of culture medium without isobutanol or ethanol. Small samples were removed from the cultures for viable cell counts, and the remaining portion of each cell suspension (approximately 975 μl) was inoculated into 10 ml of SEU culture medium. The cultures were incubated at 30° C. with shaking. In general, each subsequent round of isobutanol selection was initiated with cells that had survived the highest level of isobutanol selection in the previous round of exposure.
Increased numbers of survivors were observed following each exposure to isobutanol (Table 7). For example, only 1.8% of the cells survived 24 hour exposure to 2.0% isobutanol during Selection I whereas 100% of the population survived 24 hour exposure to 2.0% isobutanol during Selection IV.

[1] = system: population of cells that had survived 24 hour exposure to 2.5% isobutanol during Selection IV; test: Serial passage in SEGU culture medium with glucose and isobutanol; type: cell-based, Saccharomyces cerevisiae; conditions: 30° C., after 48 hours (1:2 dilution after 24 hours)
Experimental: A population of cells that had been evolved through four isobutanol exposures (Selection IV, Example 2) was repeatedly sub-cultured in growth medium supplemented with glucose and isobutanol to select for cells that were better able to utilize glucose in the presence of isobutanol.
A population of cells that had survived 24 hour exposure to 2.5% isobutanol during Selection IV (see Table 7) was diluted into SEGU culture medium (SEU with 0.2% glucose) to OD600=0.8. The diluted cell suspension was divided into 1.5 ml cultures, dispensed into 2 ml sterile screw cap tubes and supplemented with various concentrations of isobutanol. The cultures were incubated at 30° C. on a roller drum. After 24 hours, the cultures were diluted 1:2 with the SEGU culture medium comprising the same amount of isobutanol as the previous culture. […] The 0.5% culture was serially sub-cultured 10 times by diluting the culture to approximately OD600=0.5 in SEGU culture medium containing 0.5% isobutanol and incubating the diluted culture at 30° C. for 24 to 48 hours before diluting the culture again.

CC(C)CO [Isobutanol, 2-methyl-1-propanol]
Percent Survival (isobutanologen PNY1530; 1.5% isobutanol, Selection I): 73 | Percent Survival (isobutanologen PNY1530; 1.7% isobutanol, Selection I): 53 | Percent Survival (isobutanologen PNY1530; 2.0% isobutanol, Selection I): 1.8 → | Percent Survival (isobutanologen PNY1530; 2.0% isobutanol, Selection I, listed as isobutanol): 1.8 | Percent Survival (isobutanologen PNY1530; 2.0% isobutanol, Selection II): 12 → | Percent Survival (isobutanologen PNY1530; 2.0% isobutanol, Selection III): 21 | Percent Survival (isobutanologen PNY1530; 2.0% isobutanol, Selection IV): 100 | Percent Survival (isobutanologen PNY1530; 2.2% isobutanol, Selection III): 0.8 | Percent Survival (isobutanologen PNY1530; 2.2% isobutanol, Selection IV): 45 | Percent Survival (isobutanologen PNY1530; 2.5% isobutanol, Selection II): 0.0003 | Percent Survival (isobutanologen PNY1530; 2.5% isobutanol, Selection III): 0.0006 → | Percent Survival (isobutanologen PNY1530; 2.5% isobutanol, Selection IV): 14 → | Percent Survival (isobutanologen PNY1530; 2.5% isobutanol, Selection V): 4.5 | Percent Survival (isobutanologen PNY1530; 2.7% isobutanol, Selection II): no survivors were detected | Percent Survival (isobutanologen PNY1530; 2.7% isobutanol, Selection V): 0.004 | highest concentration that permitted growth [1]: 0.5%
